The values below come from patent publication US20030013643A1, “Prevention and treatment of streptococcal and staphylococcal infection” (priority 2000, published 2003).

For test [1], the system named is GAS 950771 or GAS 282. Kind of test: GAS binding to and displacement from human keratinocyte monolayers. The conditions noted are these: 1 mg/ml. The class given is cell-based, Streptococcus pyogenes.
Test [2] has as its system wild-type GAS, strain 950771. Nature of the test: GAS translocation through polarized human keratinocyte monolayers. The class given is cell-based, Streptococcus pyogenes. The settings on record: pre-treated 30 minutes with 2 mg/ml, compared to untreated monolayers. On the procedure:
Human keratinocytes were cultured on 3.0 μm filters to allow polarization and establishment of functional intercellular tight junctions. Cells were infected as described previously with wild-type GAS, strain 950771. To assess the ability of exogenously added HA to inhibit the translocation of GAS through the keratinocyte monolayer, cells were pre-treated for 30 minutes with either 2 mg/ml of hyaluronic acid (HA) or another acidic polysaccharide, alginate (AL), at the same concentration. Aliquots of media from the lower chamber of infected keratinocyte monolayers were cultured on blood agar plates at 1 and 2 hours after inoculation with bacteria to assess the number of translocating bacteria. […] In contrast only 20% and 25% of the wild-type bacteria were blocked by AL at 1 and 2 hours, respectively.
GAS strains were 950771, an M-type 3 strain originally isolated from a child with necrotizing fasciitis, and 188, an isogenic acapsular mutant derived from 950771 (Ashbaugh, C. D., et al., (1998) J. Clin. Invest. 102, 550-560). Bacteria were cultured in Todd Hewitt broth (Difco, Sparks, Md.) to early exponential phase. For preparation of polarized keratinocyte monolayers, human squamous cell carcinoma cell line, SCC13, derived from cheek epidermis (Cline, P. R. & Rice, R. H. (1983) Cancer Res. 43, 3203-3207) was cultured to confluence in serum-free keratinocyte medium (Gibco BRL, Rockville, Md.) supplemented with 50 μg/ml bovine pituitary extract, 0.1 ng/ml epidermal growth factor and 0.3 mM calcium chloride (c-SFM). Certain experiments were performed also using cell monolayers prepared from OKP7 primary human keratinocytes (Crowe et al. (1991) Differentiation 48, 199-208). Keratinocytes were seeded at 5×10^5 cells per well onto polycarbonate Transwell membrane supports (12-well plates, 3.0 μm pore size; Costar, Corning, N.Y.) and cultured for 6-10 days at 37° C. with 5% CO2 in c-SFM, with daily medium changes. Once confluent, the integrity of the monolayer was assessed routinely by measuring permeability to sodium fluorescein (Tchao, R. (1988) Alternative Methods in Toxicology (eds. Goldberg, A. M.) 271-283 (Ann Liebert, N.Y.) and, in some experiments, by measuring transepithelial electrical resistance (McNamara, B. P., et al. (2001) J Clin Invest 107, 621-9).
Keratinocyte monolayers on Transwells were inoculated with GAS at a multiplicity of infection of 10 per keratinocyte. Monolayers were incubated at 37° C. with 5% CO2. The keratinocyte medium in the upper chamber was replaced two hours after adding GAS, and the Transwell inserts containing the keratinocytes were moved to new wells containing fresh medium every 2 hours to prevent overgrowth of translocated bacteria. Translocation was assessed by quantitative cultures of medium from the lower chamber at 2 hour intervals.
As a model of the movement of GAS from the pharyngeal mucosa or skin surface into underlying tissue, GAS translocation was studied in vitro through keratinocyte monolayers. Two hours after inoculation onto the surface of a confluent keratinocyte monolayer, wild-type GAS was detected in the culture medium below the membrane support, indicating migration of the organisms through the monolayer. At each of several intervals after inoculation, approximately 20 to 100 times as many GAS were recovered below monolayers inoculated with wild-type GAS compared to those inoculated with the acapsular mutant strain.(Figure 12a). […] Compared to wild-type GAS strain 950771, the efficiency of translocation was similar for wild-type GAS strains 87-282, a highly encapsulated M-type 18 strain, and for DLS003, a poorly encapsulated M-type 3 strain. Translocation of wild-type GAS was reduced by 78% at 1 hour in experiments in which the keratinocyte monolayers were pretreated with monoclonal antibody IM7.8.1 to block interaction of the GAS capsule with CD44 . […]

In test [3] the test system is Group A Streptococcus (GAS, strain 950771). Nature of the test: Bacterial binding to human keratinocyte monolayers, GAS. In kind it is cell-based. The conditions noted are these: 1 mg/ml pre-incubation; multiplicity of infection 10; 1 hour. As for the experimental part:
(§1) Keratinocyte monolayers were prepared as descibed above in Methods section and pre-incubated with 1 mg/ml alginate (AL, solid bars) or 1 mg/ml hyaluronic acid (HA, hatched bars) prior to surface inoculation (as described above in Methods) with either Group A Streptococcus (GAS, strain 950771), Group B Streptococcus (GBS, strain 515), Streptococcus pneumoniae (S. pneumo, type 6), or Staphylococcus aureus (S. aureus, type 8) at a multiplicity of infection of 10 bacteria per keratinocyte for 1 hour.

In test [4] the test system is Group B Streptococcus (GBS, strain 515). Nature of the test: Bacterial binding to human keratinocyte monolayers, GBS. The class given is cell-based. The conditions noted are these: 1 mg/ml pre-incubation; multiplicity of infection 10; 1 hour. As for the experimental part:
as §1

Test [5] deals with Streptococcus pneumoniae (S. pneumo, type 6). Nature of the test: Bacterial binding to human keratinocyte monolayers, S. pneumoniae. The class given is cell-based. The conditions noted are these: 1 mg/ml pre-incubation; multiplicity of infection 10; 1 hour. On the procedure:
as §1

Test [6] concerns Staphylococcus aureus (S. aureus, type 8). Nature of the test: Bacterial binding to human keratinocyte monolayers, S. aureus. In kind it is cell-based. The settings on record: 1 mg/ml pre-incubation; multiplicity of infection 10; 1 hour. On the procedure:
as §1

With hyaluronic acid, the “inhibition of GAS binding to human cells” value in test [1] (GAS 950771 or GAS 282, not strain specific) is on record as “block GAS binding to human cells”. Further, the “displacement of bound bacteria” value in test [1] (after 45 minutes) is given as “displaced bound GAS”. Besides, the “blocking of translocating GAS” value in test [2] (1 hour after inoculation) and in test [2] (2 hours after inoculation) was 100% each time. Also, the inhibition of binding result in test [3], in test [4], in test [5] and in test [6] was “more than 80%” in each case.
